According to PMC10459042, “Synthesis of 1,2,3-Triazole-Containing Methoxylated Cinnamides and Their Antileishmanial Activity against the Leishmania braziliensis Species” (Pharmaceuticals, 2023):

What was measured:
[1] = test system: Leishmania braziliensis stationary promastigotes; experiment: In vitro antileishmanial activity against promastigotes (MTT); format: cell-based; settings: Leishmania braziliensis; 48 h at 24 °C, MTT, mean ± standard deviation
Description: The study was approved by the Committee for the Ethical Handling of Research Animals from the Federal University of Minas Gerais (protocol number 085/2017). Leishmania braziliensis (MHOM/BR/1975/M2904) promastigotes were grown at 24 °C in Schneider’s medium (Sigma-Aldrich, USA) supplemented with 20% heat-inactivated fetal bovine serum (FBS, Sigma-Aldrich, USA) and 20 mmol/L L-glutamine at pH 7.4 [65].
(§1) The in vitro antileishmanial activity was evaluated by incubating the promastigotes or axenic amastigotes (1 × 10^6 cells/well) with the 24 synthetic derivatives (Compounds 5–28; 0 to 600 µg/mL) in 96-well culture plates (Nunc, Nunclon, Roskilde, Denmark) for 48 h at 24 °C. Due to the difficulty in obtaining a high concentration of murine macrophages, the cytotoxicity experiment was evaluated by incubating such cells (5 × 10^5 per mL) with Compound 28 (0 to 600 µg/mL), which presented the best antileishmanial activity, for 48 h at 37 °C in a 5% CO2 environment. AmpB (0 to 10 µg/mL; Sigma-Aldrich, St. Louis, MO, USA) was used as a positive control in both experiments. The cell viability was assessed using the 3-(4.5-dimethylthiazol-2-yl)-2.5-diphenyl tetrazolium bromide (MTT, Sigma-Aldrich, St. Louis, MO, USA) method. The optical density (OD) values were read using a microplate spectrophotometer (Molecular Devices, Spectra Max Plus, San Jose, CA, USA) at 570 nm. Results were entered into Microsoft Excel (version 10.0) spreadsheets, and the 50% Leishmania and macrophage inhibitory concentrations (IC50 and CC50, respectively) were calculated by applying a sigmoidal regression of the dose–response curve. The SI was calculated by dividing the CC50 with the respective IC50 values.

[2] = test system: Leishmania braziliensis axenic amastigotes; experiment: In vitro antileishmanial activity against axenic amastigotes (MTT); format: cell-based; settings: Leishmania braziliensis, 48 h, 48 h at 24 °C, MTT, mean ± standard deviation
Description: To obtain the axenic amastigotes, 1 × 10^9 stationary promastigotes were washed three times in sterile phosphate-buffered saline (PBS) and incubated in 5 mL FBS for 48 h at 37 °C. Parasites were washed with cold PBS, and their morphology was evaluated with an optical microscope after Giemsa staining as previously described.
as §1

With COc1ccc(/C=C/C(=O)NCc2cn(Cc3ccc(C)cc3)nn2)cc1OC [Compound 16, N-((1-(4-methylbenzyl)-1H-1,2,3-triazol-4-yl)methyl) (3,4-dimethoxy) cinnamide] the IC50 [1] was > 600 µg/mL, the melting point was 191.6 to 192.2 °C and the IC50 [2] was > 600 µg/mL.

In the case of COc1ccc(/C=C/C(=O)NCc2cn(Cc3ccc(Cl)cc3)nn2)cc1OC [Compound 19, N-((1-(4-chlorobenzyl)-1H-1,2,3-triazol-4-yl)methyl) (3,4-dimethoxy) cinnamide], the IC50 [1] is reported as > 600 µg/mL, the melting point is reported as 189.6 to 190.8 °C and the IC50 [2] is reported as > 600 µg/mL.

In the case of COc1ccc(/C=C/C(=O)NCc2cn(Cc3ccc(OC(F)(F)F)cc3)nn2)cc1OC [Compound 24, N-((1-(4-(trifluoromethoxy)benzyl)-1H-1,2,3-triazol-4-yl)methyl) (3,4-dimethoxy) cinnamide], the IC50 [1] is reported as > 600 µg/mL, the melting point is reported as 177.4 to 178.6 °C and the IC50 [2] is reported as > 600 µg/mL.

With COc1ccc(/C=C/C(=O)NCc2cn(Cc3ccc(C)cc3)nn2)cc1 [Compound 5, N-((1-(4-methylbenzyl)-1H-1,2,3-triazol-4-yl)methyl) (4-methoxy) Cinnamide] the IC50 [1] was > 600 µg/mL, the melting point was 166 to 167.2 °C and the IC50 [2] was > 600 µg/mL.

For COc1ccc(/C=C/C(=O)NCc2cn(Cc3ccc([N+](=O)[O-])cc3)nn2)cc1 [Compound 11, N-((1-(4-nitrobenzyl)-1H-1,2,3-triazol-4-yl)methyl) (4-methoxy) cinnamide], the IC50 [1] was > 600 µg/mL, the melting point was 192.2 to 193.4 °C and the IC50 [2] was > 600 µg/mL.

With COc1ccc(/C=C/C(=O)NCc2cn(Cc3ccc([N+](=O)[O-])cc3)nn2)cc1OC [Compound 22, N-((1-(4-nitrobenzyl)-1H-1,2,3-triazol-4-yl)methyl) (3,4-dimethoxy) cinnamide] the IC50 [1] was > 600 µg/mL, the melting point was 217.6 to 218.9 °C and the IC50 [2] was > 600 µg/mL.

For COc1ccc(/C=C/C(=O)NCc2cn(Cc3ccc(OC)cc3)nn2)cc1 [Compound 12, N-((1-(4-methoxybenzyl)-1H-1,2,3-triazol-4-yl)methyl) (4-methoxy) cinnamide], the IC50 [1] was > 600 µg/mL, the melting point was 169 to 170.2 °C and the IC50 [2] was > 600 µg/mL.

In the case of COc1ccc(/C=C/C(=O)NCc2cn(Cc3ccc(I)cc3)nn2)cc1OC [Compound 21, N-((1-(4-iodobenzyl)-1H-1,2,3-triazol-4-yl)methyl) (3,4-dimethoxy) cinnamide], the IC50 [1] is reported as > 600 µg/mL, the melting point is reported as 194 to 194.9 °C and the IC50 [2] is reported as > 600 µg/mL.

For COc1ccc(/C=C/C(=O)NCc2cn(Cc3ccc(Cl)cc3)nn2)cc1 [Compound 8, N-((1-(4-chlorobenzyl)-1H-1,2,3-triazol-4-yl)methyl) (4-methoxy) cinnamide], the IC50 [1] was > 600 µg/mL, the melting point was 185.7 to 186.5 °C and the IC50 [2] was > 600 µg/mL.

For COc1ccc(/C=C/C(=O)NCc2cn(Cc3ccc(C(C)C)cc3)nn2)cc1 [Compound 6, N-((1-(4-isopropylbenzyl)-1H-1,2,3-triazol-4-yl)methyl) (4-methoxy) cinnamide], the IC50 [1] was > 600 µg/mL, the melting point was 187.4 to 188.3 °C and the IC50 [2] was > 600 µg/mL.

In the case of COc1ccc(/C=C/C(=O)NCc2cn(Cc3ccc(F)cc3)nn2)cc1 [Compound 7, N-((1-(4-fluorobenzyl)-1H-1,2,3-triazol-4-yl)methyl) (4-methoxy) cinnamide], the IC50 [1] is reported as > 600 µg/mL, the melting point is reported as 178.6 to 180 °C and the IC50 [2] is reported as > 600 µg/mL.

For COc1ccc(Cn2cc(CNC(=O)/C=C/c3ccc(OC)c(OC)c3)nn2)cc1 [Compound 23, N-((1-(4-methoxybenzyl)-1H-1,2,3-triazol-4-yl)methyl) (3,4-dimethoxy) cinnamide], the IC50 [1] was > 600 µg/mL, the melting point was 171.2 to 172 °C and the IC50 [2] was > 600 µg/mL.

In the case of COc1ccc(/C=C/C(=O)NCc2cn(Cc3ccc(I)cc3)nn2)cc1 [Compound 10, N-((1-(4-iodobenzyl)-1H-1,2,3-triazol-4-yl)methyl) (4-methoxy) cinnamide], the IC50 [1] is reported as > 600 µg/mL, the melting point is reported as 200.6 to 202 °C and the IC50 [2] is reported as > 600 µg/mL.
